# Measurements: ChEMBL document CHEMBL5729548, “ACLY inhibitors and uses thereof” (2023)
# Target: T1, ATP-citrate synthase (Homo sapiens, UniProt P53396)
# T1 sequence (P53396 whole entry): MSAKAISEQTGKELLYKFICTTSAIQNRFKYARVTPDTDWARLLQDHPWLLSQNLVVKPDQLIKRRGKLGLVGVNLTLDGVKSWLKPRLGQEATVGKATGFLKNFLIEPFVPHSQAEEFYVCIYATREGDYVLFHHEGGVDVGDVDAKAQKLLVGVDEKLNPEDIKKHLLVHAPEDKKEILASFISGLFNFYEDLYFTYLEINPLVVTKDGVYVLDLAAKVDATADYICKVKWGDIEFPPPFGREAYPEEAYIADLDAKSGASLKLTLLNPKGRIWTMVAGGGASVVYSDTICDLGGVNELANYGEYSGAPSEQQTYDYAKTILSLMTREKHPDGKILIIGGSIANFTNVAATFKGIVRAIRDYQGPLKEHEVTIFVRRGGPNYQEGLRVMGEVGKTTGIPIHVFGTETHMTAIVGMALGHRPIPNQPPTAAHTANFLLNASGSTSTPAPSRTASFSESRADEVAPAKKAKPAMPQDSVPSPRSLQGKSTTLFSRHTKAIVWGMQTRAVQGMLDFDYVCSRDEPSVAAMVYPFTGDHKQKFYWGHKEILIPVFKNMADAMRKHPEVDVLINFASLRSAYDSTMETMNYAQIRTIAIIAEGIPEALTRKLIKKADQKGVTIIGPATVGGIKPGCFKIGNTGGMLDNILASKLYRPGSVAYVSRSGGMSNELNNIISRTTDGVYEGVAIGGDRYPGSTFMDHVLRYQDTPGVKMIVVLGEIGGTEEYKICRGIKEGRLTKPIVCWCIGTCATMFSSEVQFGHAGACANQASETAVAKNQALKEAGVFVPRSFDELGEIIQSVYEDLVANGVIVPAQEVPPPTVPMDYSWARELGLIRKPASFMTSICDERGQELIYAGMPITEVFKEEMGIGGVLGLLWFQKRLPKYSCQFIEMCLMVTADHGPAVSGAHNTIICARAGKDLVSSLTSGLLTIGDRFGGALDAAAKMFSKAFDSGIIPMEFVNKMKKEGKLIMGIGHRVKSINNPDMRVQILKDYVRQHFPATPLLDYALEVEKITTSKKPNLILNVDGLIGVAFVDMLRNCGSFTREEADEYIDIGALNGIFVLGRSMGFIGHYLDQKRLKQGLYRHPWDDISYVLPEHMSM
# Assay: ADP-Glo Assay: Materials and Instruments Used in the ADP-Glo AssayVendor Cat No.Materials ACL Sino Biological 11769-H07BCoANa2 Sigma C3144Potassium Citrate Sigma 89306ATP Promega V915BADP-GloTM Kinase Assay Promega V9102kitHEPES Life Technologies 15630080MgCl2 Sigma M1028Brij 35 detergent Merck 203728DTT Sigma 646563DMSO MP 196055Optiplate-384, White 384- Perkin Elmer 6007290well384 dilution …
smiles,measurement,value
O=C(c1cc(Cl)c(O)c(S(=O)(=O)Nc2cc(-c3cc4ccccc4s3)c(F)cc2OC(F)(F)F)c1)N1CCC1,IC50,< 50 nM
